For this assay, the system named is rat PCA. The assay is described as follows: Passive cutaneous anaphylaxis (PCA) in rats. The note with it: iv, 0 h, carrier PBS with NaHCO3, time 0 mins between administration and antigen challenge. Type of assay: in vivo. How it is done: Serum containing heat labile homocytotropic antibody was raised in rats to crystallised ovalbumin (Grade 3 Sigma) by the Method of I. Mota (Immunology 7, 681 (1964)) using Bordetella pertussis vaccine ([…] Burroughs Welcome) as adjuvant.
Passive cutaneous anaphylaxis (PCA) was carried out by a method based on that of Ovary and Bier, (Proc. Soc. Exp. Bio. Med., 81; 584 (1952)) as modified by Goose and Blair (Immunology, 16, 749 (1969)) Male Sprague Dawley rats 230 - 340 gm were given 0.1 ml of each of six two fold serial dilutions of pooled antiserum in 0.9% saline (Polyfusor Boots) injected intradermally into separate sites on their shaved backs. 72 Hours later the rats were challenged by intravenous injection of 0.3 ml of a 1% solution of ovalbumin in isotonic saline buffered with 0.05M, pH 7.2 Sorenson Buffer (Bactohaemagglutination buffer Difco Laboratories), mixed with 0.2 ml of a 5% solution of Pontamine Sky Blue (6 BX C.l. 24410 Raymond A Lamb) in isotonic saline. The rats were killed after 20 minutes and the diameter of the blue wheals at the antibody injection sites was measured on the outer surface of the skin. The starting dilution of the serum was adjusted so that there was no response, after challenge, at the injection site of the highest dilution and a maximum response at the lowest dilutions. Typically, six twofold serial dilutions of the serum from 1/4 to 1/128 were used.
Compounds were tested for their ability to reduce the diameter of the wheals at those intradermal sites which in control animals gave less than maximum response. Each dose of the compounds was administered to six rats at a measured time prior to intravenous challenge with ovalbumin. Control groups of six rats were given the same volume (0.2 ml: 100g^-1)of carrier fluid at the same time prior to the challenge.
The results were calculated as follows: % inhibition of PCA = 100 (1 - a/b) where a = the sum of the diameters of the wheals produced in the test animal at the sites of antibody dilutions as used in control groups and b = the mean sum of the diameters of the wheals produced in the control group of animals at those antibody sites where at least five out of six of the animals gave less than maximum response. A typical variation in the control group of animals was SEM+ 6%.

As for `O=c1c2ccccc2[s+]([O-])c2nn[nH]c12` (racemic) [Example 9b, 9-Oxo-lH,9H-benzothiopyrano[2,3-dl-v-triazole-4-oxide], the inhibition in vivo at 0.5 mg/kg is 30% and the inhibition in vivo at 2 mg/kg is 61%. Molecule `O=c1c2ccccc2sc2nn[nH]c12` [Example 1f, 9-Oxo-1H,9H-benzothiopyrano[2,3-d]-v-triazole] returned an inhibition in vivo at 1 mg/kg of 35% and an inhibition in vivo at 10 mg/kg of 90%. `O=C1c2ccccc2S(=O)(=O)c2nn[nH]c21` [Example 2b, 9-Oxo-1H,9H-benzothiopyrano[2,3-d]-v-triazole-4,4-dioxide] showed an inhibition in vivo at 10 mg/kg of 68%. As to `Cc1ccc2sc3nn[nH]c3c(=O)c2c1` [Example 3d, 7-Nethyl-9-oxo-1H,9H-benzothiopyrano[2,3-d]-v-triazole], testing at 10 mg/kg gave an inhibition in vivo of 42%. The same measure, in the same setting: with `Cc1ccc2c(c1)C(=O)c1[nH]nnc1S2(=O)=O` [Example 4b, 7-Methyl-9-oxo-IH, 9H-benzothiopyrano[2,3-d]-v-triazole-4,4-dioxide] the figure was 65%.

Regarding `Cc1cc2sc3nn[nH]c3c(=O)c2cc1C` [Example 6d, 6,7-Dimethyl-9-oxo-1H,9H-benzothiopyrano[2,3-d]-v-triazole], the inhibition in vivo at 0.5 mg/kg was 65%, at 1 mg/kg the inhibition in vivo was 86% and testing at 2 mg/kg gave an inhibition in vivo of 90%. For `Cc1cc2c(cc1C)S(=O)(=O)c1nn[nH]c1C2=O` [Example 7b, 6,7-Dimethyl-9-oxo-lH,9H-benzothiopyrano[2,3-d]-v-triazole-4,4-dioxide], in that order: 56%, 59% and 74%. The molecule `COc1ccc2sc3nn[nH]c3c(=O)c2c1` [Example 8d, 7-Methoxy-9-oxo-lH,9H-benzothiopyrano[2,3-dl-v-triazole] registered an inhibition in vivo at 0.5 mg/kg of 34% and an inhibition in vivo at 2 mg/kg of 58%.

A word on the inhibition in vivo: it is how much of the control response was suppressed. Read a high inhibition in vivo as a response far below the control.
